Assay results as given in patent US8580794B2 (AbbVie Inc., priority 2009, dated 2013).

Biological target: GST-Bc1-2 (Homo sapiens, UniProt P10415)
Experiment: Time Resolved-Fluorescence Resonance Energy Transfer (TR-FRET) Bcl-2 binding assay with F-Bak peptide probe
Settings: GST-Bcl-2 1 nM, F-Bak probe 100 nM, Tb-anti-GST 1 nM; '<' = below limit of detection; read-out: TR-FRET Bcl-2 Binding Ki

Sequence of GST-Bc1-2 (P10415 whole entry): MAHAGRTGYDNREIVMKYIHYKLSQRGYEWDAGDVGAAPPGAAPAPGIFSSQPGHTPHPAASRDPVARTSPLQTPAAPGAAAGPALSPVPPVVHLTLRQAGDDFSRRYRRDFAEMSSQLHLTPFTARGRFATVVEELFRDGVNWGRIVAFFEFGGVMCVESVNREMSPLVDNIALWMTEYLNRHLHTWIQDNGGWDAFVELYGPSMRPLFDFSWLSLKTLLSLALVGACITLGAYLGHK

SMILES	Ki [nM]
COC1(COc2ccc(S(=O)(=O)NC(=O)c3ccc(N4CCN(CC5=C(c6ccc(Cl)cc6)CC(C)(C)CC5)CC4)cc3Oc3cnc4[nH]ccc4c3)cc2[N+](=O)[O-])CCOCC1 [Example 234, 4-(4-{[2-(4-chlorophenyl)-4,4-dimethylcyclohex-1-en-1-yl]methyl}piperazin-1-yl)-N-({4-[(4-methoxytetrahydro-2H-pyran-4-yl)methoxy]-3-nitrophenyl}sulfonyl)-2-(1H-pyrrolo[2,3-b]pyridin-5-yloxy)benzamide]	0.115
CC1(C)CCC(CN2CCN(c3ccc(C(=O)NS(=O)(=O)c4ccc(NCC(F)(F)F)c([N+](=O)[O-])c4)c(Oc4cnc5[nH]ccc5c4)c3)CC2)=C(c2ccc(Cl)cc2)C1 [Example 26, 4-(4-{[2-(4-chlorophenyl)-4,4-dimethylcyclohex-1-en-1-yl]methyl}piperazin-1-yl)-N-({3-nitro-4-[(2,2,2-trifluoroethyl)amino]phenyl}sulfonyl)-2-(1H-pyrrolo[2,3-b]pyridin-5-yloxy)benzamide]	0.011
CC1(C)CCC(CN2CCN(c3ccc(C(=O)NS(=O)(=O)c4ccc(NCc5cccc(O)c5)c([N+](=O)[O-])c4)c(Oc4cnc5[nH]ccc5c4)c3)CC2)=C(c2ccc(Cl)cc2)C1 [Example 186, 4-(4-{[2-(4-chlorophenyl)-4,4-dimethylcyclohex-1-en-1-yl]methyl}piperazin-1-yl)-N-({4-[(3-hydroxybenzyl)amino]-3-nitrophenyl}sulfonyl)-2-(1H-pyrrolo[2,3-b]pyridin-5-yloxy)benzamide]	0.047
CC1(C)CCC(CN2CCN(c3ccc(C(=O)NS(=O)(=O)c4ccc(NCC5CCN(C6COC6)CC5)c([N+](=O)[O-])c4)c(Oc4cnc5[nH]ccc5c4)c3)CC2)=C(c2ccc(Cl)cc2)C1 [Example 163, 4-(4-{[2-(4-chlorophenyl)-4,4-dimethylcyclohex-1-en-1-yl]methyl}piperazin-1-yl)-N-[(3-nitro-4-{[(1-oxetan-3-ylpiperidin-4-yl)methyl]amino}phenyl)sulfonyl]-2-(1H-pyrrolo[2,3-b]pyridin-5-yloxy)benzamide]	< 0.01
CO[C@H]1CC[C@H](COc2ccc(S(=O)(=O)NC(=O)c3ccc(N4CCN(CC5=C(c6ccc(Cl)cc6)CC(C)(C)CC5)CC4)cc3Oc3cnc4[nH]ccc4c3)cc2[N+](=O)[O-])CC1 [Example 125, Trans-4-(4-{[2-(4-chlorophenyl)-4,4-dimethylcyclohex-1-en-1-yl]methyl}piperazin-1-yl)-N-({4-[(4-methoxycyclohexyl)methoxy]-3-nitrophenyl}sulfonyl)-2-(1H-pyrrolo[2,3-b]pyridin-5-yloxy)benzamide]	< 0.01
COCCN1CCCC(CNc2ccc(S(=O)(=O)NC(=O)c3ccc(N4CCN(CC5=C(c6ccc(Cl)cc6)CC(C)(C)CC5)CC4)cc3Oc3cnc4[nH]ccc4c3)cc2[N+](=O)[O-])C1 (stereo not shown) [Example 228, 4-(4-{[2-(4-chlorophenyl)-4,4-dimethylcyclohex-1-en-1-yl]methyl}piperazin-1-yl)-N-{[4-({[1-(2-methoxyethyl)piperidin-3-yl]methyl}amino)-3-nitrophenyl]sulfonyl}-2-(1H-pyrrolo[2,3-b]pyridin-5-yloxy)benzamide]	26.8
CC1(C)CCC(CN2CCN(c3ccc(C(=O)NS(=O)(=O)c4ccc(NCC5(N6CCOCC6)CCCCC5)c([N+](=O)[O-])c4)c(Oc4cnc5[nH]ccc5c4)c3)CC2)=C(c2ccc(Cl)cc2)C1 [Example 99, 4-(4-{[2-(4-chlorophenyl)-4,4-dimethylcyclohex-1-en-1-yl]methyl}piperazin-1-yl)-N-[(4-{[(1-morpholin-4-ylcyclohexyl)methyl]amino}-3-nitrophenyl)sulfonyl]-2-(1H-pyrrolo[2,3-b]pyridin-5-yloxy)benzamide]	0.233
CCN(C)C(=O)N1CCOC(CNc2ccc(S(=O)(=O)NC(=O)c3ccc(N4CCN(CC5=C(c6ccc(Cl)cc6)CC(C)(C)CC5)CC4)cc3Oc3cnc4[nH]ccc4c3)cc2Cl)C1 (stereo not shown) [Example 333, 2-{[(2-chloro-4-{[4-(4-{[2-(4-chlorophenyl)-4,4-dimethylcyclohex-1-en-1-yl]methyl}piperazin-1-yl)-2-(1H-pyrrolo[2,3-b]pyridin-5-yloxy)benzoyl]sulfamoyl}phenyl)amino]methyl}-N-ethyl-N-methylmorpholine-4-carboxamide]	0.511
O=C(NS(=O)(=O)c1ccc(NCC2CCOCC2)c([N+](=O)[O-])c1)c1ccc(N2CCC(F)(Cc3ccccc3-c3ccc(Cl)cc3)CC2)cc1Oc1cnc2[nH]ccc2c1 [Example 271, 4-{4-[(4′-chlorobiphenyl-2-yl)methyl]-4-fluoropiperidin-1-yl}-N-({3-nitro-4-[(tetrahydro-2H-pyran-4-ylmethyl)amino]phenyl}sulfonyl)-2-(1H-pyrrolo[2,3-b]pyridin-5-yloxy)benzamide]	0.039
CC1(C)CCC(CN2CCN(c3ccc(C(=O)NS(=O)(=O)c4ccc(OCC5CCOC5)c(Cl)c4)c(Oc4cnc5[nH]ccc5c4)c3)CC2)=C(c2ccc(Cl)cc2)C1 (stereo not shown) [Example 323, 4-(4-{[2-(4-chlorophenyl)-4,4-dimethylcyclohex-1-en-1-yl]methyl}piperazin-1-yl)-N-{[3-chloro-4-(tetrahydrofuran-3-ylmethoxy)phenyl]sulfonyl}-2-(1H-pyrrolo[2,3-b]pyridin-5-yloxy)benzamide]	0.104
CC1(C)CCC(CC2CCN(c3ccc(C(=O)NS(=O)(=O)c4ccc(NCC5CCOCC5)c([N+](=O)[O-])c4)c(Oc4cnc5[nH]ccc5c4)c3)CC2)=C(c2ccc(Cl)cc2)C1 [Example 315, 4-(4-{[2-(4-chlorophenyl)-4,4-dimethylcyclohex-1-en-1-yl]methyl}piperidin-1-yl)-N-({3-nitro-4-[(tetrahydro-2H-pyran-4-ylmethyl)amino]phenyl}sulfonyl)-2-(1H-pyrrolo[2,3-b]pyridin-5-yloxy)benzamide]	0.052
CC1(C)CCC(CN2CCN(c3ccc(C(=O)NS(=O)(=O)c4ccc(NCC5CN(C6CC6)CCO5)c([N+](=O)[O-])c4)c(Oc4cnc5[nH]ccc5c4)c3)CC2)=C(c2ccc(Cl)cc2)C1 (stereo not shown) [Example 218, 4-(4-{[2-(4-chlorophenyl)-4,4-dimethylcyclohex-1-en-1-yl]methyl}piperazin-1-yl)-N-[(4-{[(4-cyclopropylmorpholin-2-yl)methyl]amino}-3-nitrophenyl)sulfonyl]-2-(1H-pyrrolo[2,3-b]pyridin-5-yloxy)benzamide]	0.013
CC1(C)CCC(CN2CCN(c3ccc(C(=O)NS(=O)(=O)c4ccc(N[C@H]5CCN(C6CCOC(C)(C)C6)C5)c([N+](=O)[O-])c4)c(Oc4cnc5[nH]ccc5c4)c3)CC2)=C(c2ccc(Cl)cc2)C1 (stereo partly drawn) [Example 133, 4-(4-{[2-(4-chlorophenyl)-4,4-dimethylcyclohex-1-en-1-yl]methyl}piperazin-1-yl)-N-[(4-{[(3S)-1-(2,2-dimethyltetrahydro-2H-pyran-4-yl)pyrrolidin-3-yl]amino}-3-nitrophenyl)sulfonyl]-2-(1H-pyrrolo[2,3-b]pyridin-5-yloxy)benzamide]	< 0.01
CC(C)(CO)CNc1ccc(S(=O)(=O)NC(=O)c2ccc(N3CCN(CC4=C(c5ccc(Cl)cc5)CC(C)(C)CC4)CC3)cc2Oc2cnc3[nH]ccc3c2)cc1[N+](=O)[O-] [Example 146, 4-(4-{[2-(4-chlorophenyl)-4,4-dimethylcyclohex-1-en-1-yl]methyl}piperazin-1-yl)-N-({4-[(3-hydroxy-2,2-dimethylpropyl)amino]-3-nitrophenyl}sulfonyl)-2-(1H-pyrrolo[2,3-b]pyridin-5-yloxy)benzamide]	< 0.01
CC1(C)CCC(CN2CCN(c3ccc(C(=O)NS(=O)(=O)c4ccc(N[C@@H]5CCN(C6CCOCC6)C5)c([N+](=O)[O-])c4)c(Oc4cnc5[nH]ccc5c4)c3)CC2)=C(c2ccc(Cl)cc2)C1 [Example 130, 4-(4-{[2-(4-chlorophenyl)-4,4-dimethylcyclohex-1-en-1-yl]methyl}piperazin-1-yl)-N-[(3-nitro-4-{[(3R)-1-tetrahydro-2H-pyran-4-ylpyrrolidin-3-yl]amino}phenyl)sulfonyl]-2-(1H-pyrrolo[2,3-b]pyridin-5-yloxy)benzamide]	< 0.01
CC1(C)CCC(CN2CCN(c3ccc(C(=O)NS(=O)(=O)c4ccc(N[C@H]5CCCNC5=O)c([N+](=O)[O-])c4)c(Oc4cnc5[nH]ccc5c4)c3)CC2)=C(c2ccc(Cl)cc2)C1 [Example 160, 4-(4-{[2-(4-chlorophenyl)-4,4-dimethylcyclohex-1-en-1-yl]methyl}piperazin-1-yl)-N-[(3-nitro-4-{[(3S)-2-oxopiperidin-3-yl]amino}phenyl)sulfonyl]-2-(1H-pyrrolo[2,3-b]pyridin-5-yloxy)benzamide]	< 0.01
CCN(C)C(=O)N1CCOC(CNc2ccc(S(=O)(=O)NC(=O)c3ccc(N4CCN(CC5=C(c6ccc(Cl)cc6)CC(C)(C)CC5)CC4)cc3Oc3cnc4[nH]ccc4c3)cc2[N+](=O)[O-])C1 (stereo not shown) [Example 318, 2-{[(4-{[4-(4-{[2-(4-chlorophenyl)-4,4-dimethylcyclohex-1-en-1-yl]methyl}piperazin-1-yl)-2-(1H-pyrrolo[2,3-b]pyridin-5-yloxy)benzoyl]sulfamoyl}-2-nitrophenyl)amino]methyl}-N-ethyl-N-methylmorpholine-4-carboxamide]	< 0.01
CC1(C)CCC(CN2CCN(c3ccc(C(=O)NS(=O)(=O)c4cnc(OC[C@@H]5CCN(C(CF)CF)C5)c(Cl)c4)c(Oc4cnc5[nH]ccc5c4)c3)CC2)=C(c2ccc(Cl)cc2)C1 [Example 280, N-[(5-chloro-6-{[(3R)-1-(1,3-difluoropropan-2-yl)pyrrolidin-3-yl]methoxy}pyridin-3-yl)sulfonyl]-4-(4-{[2-(4-chlorophenyl)-4,4-dimethylcyclohex-1-en-1-yl]methyl}piperazin-1-yl)-2-(1H-pyrrolo[2,3-b]pyridin-5-yloxy)benzamide]	0.071
CC1(C)CCC(CC2CCN(c3ccc(C(=O)NS(=O)(=O)c4cnc(OCC5(O)CCC(F)(F)CC5)c(Cl)c4)c(Oc4cnc5[nH]ccc5c4)c3)CC2)=C(c2ccc(Cl)cc2)C1 [Example 302, N-({5-chloro-6-[(4,4-difluoro-1-hydroxycyclohexyl)methoxy]pyridin-3-yl}sulfonyl)-4-(4-{[2-(4-chlorophenyl)-4,4-dimethylcyclohex-1-en-1-yl]methyl}piperidin-1-yl)-2-(1H-pyrrolo[2,3-b]pyridin-5-yloxy)benzamide]	0.332
